According to PubChem BioAssay AID272 (DTP/NCI, 2004):
“And” between values parts separate entries of the source, which are not always exact repeats. Equal entries are not always repeated. Results filed as inconclusive are left out.

Test system: Lewis lung carcinoma i.m., BDF1 mice, T/C %
Assay: NCI In Vivo Anticancer Drug Screen. Data for tumor model Lewis Lung Carcinoma (intramuscular) in B6D2F1 (BDF1) mice
Method: The antitumor activity of compounds was measured in mice bearing transplantable tumors. Survival or tumor size were measured and the results are expressed as the measurement made in the treated group (T) divided by the measurement made in the vehicle treated control group (C). The tumor model used in this assay is Lewis Lung Carcinoma (intramuscular) in B6D2F1 (BDF1) mice

[1] = endpoint: mean tumor weight (est.), dose: 10.0 mg/kg/injection, schedule: Q01DX011 (ip), vehicle: saline with Tween-80, higher = larger tumour
[2] = endpoint: mean tumor weight (est.), dose: 20.0 mg/kg/injection, schedule: Q01DX011 (ip), vehicle: saline with Tween-80, higher = larger tumour
[3] = endpoint: mean tumor weight, dose: 10.0 mg/kg/injection, schedule: Q01DX011 (ip), vehicle: saline, higher = larger tumour
[4] = endpoint: median survival time, dose: 10.0 mg/kg/injection, schedule: Q01DX011 (ip), vehicle: saline with Tween-80, higher = longer survival

O=c1[nH]cc(F)c(=O)[nH]1 was tested, and the T/C [1] was 37 % of control, the T/C [2] was 9 % of control and the T/C (endpoint: mean tumor weight, dose: 5.0 mg/kg/injection, schedule: Q01DX011 (ip), vehicle: other, higher = larger tumour) was 93 % of control. For the same compound, the T/C (endpoint: mean tumor weight, dose: 5.0 mg/kg/injection, schedule: Q01DX011 (ip), vehicle: saline, higher = larger tumour) was 71 % of control, the T/C (endpoint: mean tumor weight, dose: 10.0 mg/kg/injection, schedule: Q01DX011 (ip), vehicle: other, higher = larger tumour) was 46 % of control and the T/C [3] was 51 % of control and 57 % of control. The T/C (endpoint: mean tumor weight, dose: 20.0 mg/kg/injection, schedule: Q01DX011 (ip), vehicle: other, higher = larger tumour) was 18 % of control, the T/C (endpoint: mean tumor weight, dose: 20.0 mg/kg/injection, schedule: Q01DX011 (ip), vehicle: saline, higher = larger tumour) was 5 % of control and the T/C (endpoint: median survival time, dose: 5.0 mg/kg/injection, schedule: Q01DX011 (ip), vehicle: other, higher = longer survival) was 100 % of control. For the same compound, the T/C (endpoint: median survival time, dose: 6.3 mg/kg/injection, schedule: Q04DX004 (ip), vehicle: saline, higher = longer survival) was 112 % of control, the T/C (endpoint: median survival time, dose: 10.0 mg/kg/injection, schedule: Q01DX009 (ip), vehicle: saline, higher = longer survival) was 112 % of control and the T/C (endpoint: median survival time, dose: 10.0 mg/kg/injection, schedule: Q01DX011 (ip), vehicle: other, higher = longer survival) was 96 % of control. For the same compound, the T/C (endpoint: median survival time, dose: 12.5 mg/kg/injection, schedule: Q04DX004 (ip), vehicle: saline, higher = longer survival) was 116 % of control, the T/C (endpoint: median survival time, dose: 20.0 mg/kg/injection, schedule: Q01DX009 (ip), vehicle: saline, higher = longer survival) was 119 % of control and the T/C (endpoint: median survival time, dose: 20.0 mg/kg/injection, schedule: Q01DX011 (ip), vehicle: other, higher = longer survival) was 122 % of control. For the same compound, the T/C (endpoint: median survival time, dose: 25.0 mg/kg/injection, schedule: Q04DX004 (ip), vehicle: saline, higher = longer survival) was 108 % of control and the T/C (endpoint: median survival time, dose: 50.0 mg/kg/injection, schedule: Q04DX004 (ip), vehicle: saline, higher = longer survival) was 89 % of control.
For N[C@H](C(=O)O)[C@@H]1CC(Cl)=NO1, the T/C (endpoint: median survival time, dose: 1.0 mg/kg/injection, schedule: Q01DX013 (ip), vehicle: saline, higher = longer survival) was 101 % of control and the T/C (endpoint: median survival time, dose: 2.0 mg/kg/injection, schedule: Q01DX013 (ip), vehicle: saline, higher = longer survival) was 100 % of control.
With Cc1[nH]c(=O)[nH]c(=O)c1N(CCF)CCCl the T/C (endpoint: mean tumor weight (est.), dose: 5.0 mg/kg/injection, schedule: Q01DX011 (ip), vehicle: saline with Tween-80, higher = larger tumour) was 69 % of control, the T/C (endpoint: mean tumor weight (est.), dose: 5.0 mg/kg/injection, schedule: Q01DX011 (ip), vehicle: saline, higher = larger tumour) was 81 % of control and the T/C [1] was 74 % of control. For the same compound, the T/C (endpoint: mean tumor weight (est.), dose: 10.0 mg/kg/injection, schedule: Q01DX011 (ip), vehicle: saline, higher = larger tumour) was 80 % of control, the T/C [2] was 54 % of control and the T/C (endpoint: mean tumor weight (est.), dose: 20.0 mg/kg/injection, schedule: Q01DX011 (ip), vehicle: saline, higher = larger tumour) was 28 % of control. For the same compound, the T/C (endpoint: mean tumor weight (est.), dose: 40.0 mg/kg/injection, schedule: Q01DX011 (ip), vehicle: saline with Tween-80, higher = larger tumour) was 24 % of control, the T/C (endpoint: median survival time, dose: 5.0 mg/kg/injection, schedule: Q01DX011 (ip), vehicle: saline with Tween-80, higher = longer survival) was 101 % of control and the T/C (endpoint: median survival time, dose: 5.0 mg/kg/injection, schedule: Q01DX011 (ip), vehicle: saline, higher = longer survival) was 109 % of control. The T/C [4] was 105 % of control, the T/C (endpoint: median survival time, dose: 10.0 mg/kg/injection, schedule: Q01DX011 (ip), vehicle: saline, higher = longer survival) was 119 % of control and the T/C (endpoint: median survival time, dose: 20.0 mg/kg/injection, schedule: Q01DX011 (ip), vehicle: saline with Tween-80, higher = longer survival) was 100 % of control.
For Cc1c[n+]2c3ccccc3c3ccccc3c2s1, the T/C [3] was 112 % of control and the T/C [4] was 89 % of control.
